Patent US20070154882A1, “Beta-polypeptides that inhibit cytomegalovirus infection” (priority 2005, published 2007)

How the values were obtained:
[1] = system: HCMV membrane fusion (nuclear localization of pp65) in NHDF cells; test: pp65 translocation (virion content delivery) assay; type: cell-based; conditions: HCMV diluted with 100 µM beta-peptide; 4° C. 90 min, then 37° C. 35 min
Experimental: NHDF cells were grown on glass cover-slips in 12-well plates as above. The HCMV was diluted with 100 µM beta-peptide in SF-DMEM and cooled to 4° C. The treatment was then added to cooled cells, which were incubated at 4° C. for 90 min, assuring viral attachment but not entry. The cells were then transferred to 37° C. for 35 min. The cells were then fixed in 3% paraformaldehyde and immunostained for pp65 as described (Lopper, M.; Compton, T. (2004) in J. Virol. Vol. 78, pp. 8333-8341). Images were taken on the Nikon Eclipse TE2000-S with appropriate filters, using consistent exposure times.
The infectivity assays used in these Examples measures immediate early gene expression; immediate early (IE) proteins are the first viral proteins expressed in infected cells. Inhibition of viral gene expression could reflect interference at a variety of points in the virus life cycle such as inhibition of IE gene transcription or translation. A virion content delivery assay was performed to test whether the beta-peptides act at the viral entry stage, as they have been designed to do. Immediately upon membrane fusion, the phosphoprotein-rich tegument layer of the virus is released into the cytoplasm of the target cell. The pp65 protein, highly abundant in the virion tegument, diffuses rapidly to the nucleus after membrane fusion. […]

Row | Molecule | Cytotoxicity, as indicated by P1 uptake (NHDF cells) | other results
1 | CC(=O)NC[C@H](Cc1ccc(O)cc1)C(=O)NC1CCCC1C(=O)NC1CNCC1C(=O)NC1CNCC1C(=O)N[C@H](CC(=O)NC1CNCC1C(=O)NC1CNCC1C(=O)NC1CCCC1C(=O)NC[C@H](CC(C)C)C(=O)NC1CNCC1C(=O)NC1CCCC1C(=O)N[C@H](CC(=O)N[C@H](CC(N)=O)Cc1ccccc1)C(C)C)CC(C)C (some centres unmarked) [ERP-II-005] | – | toxicity toward fibroblasts (NHDF cells): highly toxic; disruption of cell membranes (human red blood cells): does not simply disrupt cell membranes
2 | CC(=O)NC1CCCC1C(=O)N[C@H](CC(=O)NC1CCCC1C(=O)NC[C@H](CC(C)C)C(=O)NC1CNCC1C(=O)NC1CNCC1C(=O)N[C@H](CC(=O)NC1CCCC1C(=O)NC[C@H](Cc1ccc(O)cc1)C(=O)NC1CNCC1C(=O)NC1CNCC1C(=O)N[C@H](CC(=O)NC1CNCC1C(N)=O)C(C)C)Cc1ccc2ccccc2c1)CC(C)C (some centres unmarked) [EPE-II-231] | Toxic | –
3 | heparin | – | nuclear localization of pp65 [1]: eliminates pp65 accumulation in the nucleus
4 | CC(=O)NC1CCCC1C(=O)N[C@H](CC(=O)NC1CCCC1C(=O)NC[C@H](CC(C)C)C(=O)NC1CNCC1C(=O)NC1CNCC1C(=O)N[C@H](CC(=O)NC1CCCC1C(=O)NC[C@H](Cc1ccc(O)cc1)C(=O)NC1CNCC1C(=O)NC1CNCC1C(=O)N[C@H](CC(=O)NC1CNCC1C(N)=O)Cc1cccc2ccccc12)Cc1ccccc1)CC(C)C (some centres unmarked) [EPE-II-227] | Toxic | –
5 | CC(=O)NC1CCCC1C(=O)N[C@H](CC(=O)NC1CCCC1C(=O)NC[C@H](CC(C)C)C(=O)NC1CNCC1C(=O)NC1CNCC1C(=O)N[C@H](CC(=O)NC1CCCC1C(=O)NC[C@H](Cc1ccc(O)cc1)C(=O)NC1CNCC1C(=O)NC1CNCC1C(=O)N[C@H](CC(=O)NC1CNCC1C(N)=O)Cc1ccc2ccccc2c1)Cc1ccccc1)CC(C)C (some centres unmarked) [EPE-II-225] | Toxic | –
6 | CC(=O)NC1CCCC1C(=O)N[C@H](CC(=O)NC1CCCC1C(=O)NC[C@H](CC(C)C)C(=O)NC1CNCC1C(=O)NC1CNCC1C(=O)N[C@H](CC(=O)NC1CCCC1C(=O)NC[C@H](Cc1ccc(O)cc1)C(=O)NC1CNCC1C(=O)NC1CNCC1C(=O)N[C@H](CC(=O)NC1CNCC1C(N)=O)C(C)C)Cc1cccc2ccccc12)CC(C)C (some centres unmarked) [EPE-II-233] | Toxic | –
7 | CNC(=O)C[C@H](C)NC(=O)COC(=O)[C@H]1CCCN1C(=O)CC(Cc1ccccc1)NC(C)=O (some centres unmarked) | – | melting point: 128 to 129 °C
